Among the data in US20170260178A1 (SPERO GYRASE, INC., priority 2012, published 2017) are MIC values, retold here.

SMILES strings stand for the structures. Read-outs that look alike come from different tables or passages of the source. Where only a bound is given, the exact number is not on record here.

The test system of assay [1] is H. influenzae (ATCC 49247). Kind of assay: Bacterial assay: MIC against H. influenzae. Format: cell-based. The settings on record: Haemophilus influenzae.
In a further assay the test system is S. aureus (ATCC 29213). Kind of assay: Bacterial assay: MIC against S. aureus. Format: cell-based, Staphylococcus aureus. The settings on record: Staphylococcus aureus, ATCC29213, read-out: minimal inhibitory concentration (MIC).
The next assay concerns S. pyogenes (ATCC 51339). Put plainly: Bacterial assay: MIC against S. pyogenes. The format is cell-based, Streptococcus pyogenes. As to conditions: Streptococcus pyogenes, ATCC51339, read-out: minimal inhibitory concentration (MIC).
The mark [2] stands for this setting: ATCC49247, H. influenzae ATCC 49247, read-out: minimal inhibitory concentration (MIC).

Take `CNC(=O)Nc1nc2cc(-c3cnc(C(C)(C)O)nc3)cc(-c3ccccn3)c2s1` [Compound 82, 1-[5-[2-(1-hydroxy-1-methyl-ethyl)pyrimidin-5-yl]-7-(2-pyridyl)-1,3-benzothiazol-2-yl]-3-methyl-urea]: the MIC in assay [1] (setting [2]) was no more than 2 µg/mL; in the assay on S. aureus (ATCC 29213) it was no more than 1 µg/mL; in the assay with S. pyogenes (ATCC 51339), no more than 1 µg/mL.

As for `CNC(=O)Nc1nc2cc(-c3cnc(C(C)O)nc3)cc(-c3ccccn3)c2s1` (stereo not drawn) [Compound 83, 1-[5-[2-(1-hydroxyethyl)pyrimidin-5-yl]-7-(2-pyridyl)-1,3-benzothiazol-2-yl]-3-methyl-urea], the MIC was no more than 2 µg/mL in assay [1] (setting [2]), no more than 1 µg/mL in the assay on S. aureus (ATCC 29213) and no more than 1 µg/mL in the assay on S. pyogenes (ATCC 51339).

`CCNC(=O)Nc1nc2cc(-c3cnc(C(C)(C)O)nc3)cc(-c3cc(N4CCC(C)(C(=O)O)CC4)ncn3)c2s1` [Compound 87, 1-[6-[2-(ethylcarbamoylamino)-5-[2-(1-hydroxy-1-methyl-ethyl)pyrimidin-5-yl]-1,3-benzothiazol-7-yl]pyrimidin-4-yl]-4-methyl-piperidine-4-carboxylic acid]: the MIC in assay [1] (setting [2]) was no more than 2 µg/mL; in the assay with S. aureus (ATCC 29213), no more than 1 µg/mL; in the assay on S. pyogenes (ATCC 51339) it was no more than 1 µg/mL.

With `CCNC(=O)Nc1nc2cc(-c3cnc(N4CCC(C)(C(=O)O)CC4)nc3)cc(-c3cc(C(C)O)ccn3)c2s1` (stereo not drawn) [Compound 88, 1-[5-[2-(ethylcarbamoylamino)-7-[4-(1-hydroxyethyl)-2-pyridyl]-1,3-benzothiazol-5-yl]pyrimidin-2-yl]-4-methyl-piperidine-4-carboxylic acid], the MIC in assay [1] (setting [2]) was no more than 2 µg/mL; in the assay with S. aureus (ATCC 29213), no more than 1 µg/mL; in the assay with S. pyogenes (ATCC 51339), no more than 1 µg/mL.

Regarding `CCNC(=O)Nc1nc2cc(-c3cnc(C(C)O)nc3)cc(-c3cc(OCCOC)ccn3)c2s1` (stereo not drawn) [Compound 92, 1-ethyl-3-[5-[2-(1-hydroxyethyl)pyrimidin-5-yl]-7-[4-(2-methoxyethoxy)-2-pyridyl]-1,3-benzothiazol-2-yl]urea], the MIC was no more than 2 µg/mL in assay [1] (setting [2]), no more than 1 µg/mL in the assay with S. aureus (ATCC 29213) and no more than 1 µg/mL with S. pyogenes (ATCC 51339).

As for `CCNC(=O)Nc1nc2cc(-c3ccc(C(C)O)nc3)cc(-c3ccccn3)c2s1` (stereo not drawn) [Compound 95, 1-ethyl-3-[5-[6-(1-hydroxyethyl)-3-pyridyl]-7-(2-pyridyl)-1,3-benzothiazol-2-yl]urea], the MIC was no more than 2 µg/mL in assay [1] (setting [2]), no more than 1 µg/mL with S. aureus (ATCC 29213) and no more than 1 µg/mL in the assay on S. pyogenes (ATCC 51339).

As for `CCNC(=O)Nc1nc2cc(-c3ccc(C(O)C(F)(F)F)nc3)cc(-c3ccccn3)c2s1` (stereo not drawn) [Compound 96, 1-ethyl-3-[7-(2-pyridyl)-5-[6-(2,2,2-trifluoro-1-hydroxy-ethyl)-3-pyridyl]-1,3-benzothiazol-2-yl]urea], the MIC in assay [1] (setting [2]) is no more than 2 µg/mL; with S. aureus (ATCC 29213) it was no more than 1 µg/mL; with S. pyogenes (ATCC 51339), no more than 1 µg/mL.

For the compound `CCNC(=O)Nc1nc2cc(-c3cnc(C(C)O)nc3)cc(-c3cc(CP(=O)(OCC)OCC)ccn3)c2s1` (stereo not drawn) [Compound 100, 1-[7-[4-(diethoxyphosphorylmethyl)-2-pyridyl]-5-[2-(1-hydroxyethyl)pyrimidin-5-yl]-1,3-benzothiazol-2-yl]-3-ethyl-urea], the MIC is no more than 2 µg/mL in assay [1] (ATCC49247, read-out: minimal inhibitory concentration (MIC)); no more than 1 µg/mL in the assay on S. aureus (ATCC 29213); no more than 1 µg/mL with S. pyogenes (ATCC 51339).

As to `CCNC(=O)Nc1nc2cc(-c3cnc(C(C)O)nc3)cc(-c3cc(OCC4CCCO4)ccn3)c2s1` (stereo not drawn) [Compound 104, 1-ethyl-3-[5-[2-(1-hydroxyethyl)pyrimidin-5-yl]-7-[4-(tetrahydrofuran-2-ylmethoxy)-2-pyridyl]-1,3-benzothiazol-2-yl]urea], the MIC is no more than 2 µg/mL in assay [1] (setting [2]), no more than 1 µg/mL with S. aureus (ATCC 29213) and no more than 1 µg/mL with S. pyogenes (ATCC 51339).

For the compound `CCNC(=O)Nc1nc2cc(-c3cnc(C4(O)CCOCC4)nc3)cc(-c3ccccn3)c2s1` [Compound 111, 1-ethyl-3-[5-[2-(4-hydroxytetrahydropyran-4-yl)pyrimidin-5-yl]-7-(2-pyridyl)-1,3-benzothiazol-2-yl]urea], the MIC in assay [1] (setting [2]) is no more than 2 µg/mL; in the assay on S. aureus (ATCC 29213), no more than 1 µg/mL; in the assay with S. pyogenes (ATCC 51339) it was no more than 1 µg/mL.

On to `CCNC(=O)Nc1nc2cc(-c3cnc(C4(O)COC4)nc3)cc(-c3ccccn3)c2s1` [Compound 113, 1-ethyl-3-[5-[2-(3-hydroxyoxetan-3-yl)pyrimidin-5-yl]-7-(2-pyridyl)-1,3-benzothiazol-2-yl]urea], for which the MIC in assay [1] (setting [2]) was no more than 2 µg/mL; with S. aureus (ATCC 29213), no more than 1 µg/mL; in the assay with S. pyogenes (ATCC 51339), no more than 1 µg/mL.

Consider `CCNC(=O)Nc1nc2cc(-c3cnc(C(C)(C)O)nc3)cc(-c3cc(CN4CC(C)(OC)C4)ccn3)c2s1` [Compound 114, 1-ethyl-3-[5-[2-(1-hydroxy-1-methyl-ethyl)pyrimidin-5-yl]-7-[4-[(3-methoxy-3-methyl-azetidin-1-yl)methyl]-2-pyridyl]-1,3-benzothiazol-2-yl]urea], for which the MIC is no more than 2 µg/mL in assay [1] (setting [2]), no more than 1 µg/mL in the assay on S. aureus (ATCC 29213) and no more than 1 µg/mL in the assay with S. pyogenes (ATCC 51339).

In the case of `CCNC(=O)Nc1nc2cc(-c3cnc(C(C)O)nc3)cc(-c3ncccn3)c2s1` (stereo not drawn) [Compound 115, 1-ethyl-3-[5-[2-(1-hydroxyethyl)pyrimidin-5-yl]-7-pyrimidin-2-yl-1,3-benzothiazol-2-yl]urea], the values for the MIC (in assay [1] (setting [2]); with S. aureus (ATCC 29213); with S. pyogenes (ATCC 51339)) were no more than 2 µg/mL, no more than 1 µg/mL and no more than 1 µg/mL, respectively.

Consider `CCNC(=O)Nc1nc2cc(-c3ccc(C(O)C(F)(F)F)nc3)cc(-c3cc(OCCN4CCOCC4)ccn3)c2s1` (stereo not drawn) [Compound 116, 1-ethyl-3-[7-[4-(2-morpholinoethoxy)-2-pyridyl]-5-[6-(2,2,2-trifluoro-1-hydroxy-ethyl)-3-pyridyl]-1,3-benzothiazol-2-yl]urea], for which the MIC in assay [1] (setting [2]) is no more than 2 µg/mL; with S. aureus (ATCC 29213) it was no more than 1 µg/mL; in the assay on S. pyogenes (ATCC 51339), no more than 1 µg/mL.

As for `CCNC(=O)Nc1nc2cc(-c3cnc(C4(O)CCCC4)nc3)cc(-c3ccccn3)c2s1` [Compound 119, 1-ethyl-3-[5-[2-(1-hydroxycyclopentyl)pyrimidin-5-yl]-7-(2-pyridyl)-1,3-benzothiazol-2-yl]urea], the MIC in assay [1] (setting [2]) was no more than 2 µg/mL; with S. aureus (ATCC 29213), no more than 1 µg/mL; in the assay on S. pyogenes (ATCC 51339), no more than 1 µg/mL.

As for `CCNC(=O)Nc1nc2cc(-c3cnc([C@@H](C)O)nc3)cc(-c3cc(CN4CCOCC4)ccn3)c2s1` [Compound 121, 1-ethyl-3-[5-[2-[(1R)-1-hydroxyethyl]pyrimidin-5-yl]-7-[4-(morpholinomethyl)-2-pyridyl]-1,3-benzothiazol-2-yl]urea], the MIC in assay [1] (setting [2]) was no more than 2 µg/mL; with S. aureus (ATCC 29213), no more than 1 µg/mL; in the assay with S. pyogenes (ATCC 51339), no more than 1 µg/mL.

As for `CCNC(=O)Nc1nc2cc(-c3cnc([C@H](C)O)nc3)cc(-c3cc(CN4CCOCC4)ccn3)c2s1` [Compound 122, 1-ethyl-3-[5-[2-[(1S)-1-hydroxyethyl]pyrimidin-5-yl]-7-[4-(morpholinomethyl)-2-pyridyl]-1,3-benzothiazol-2-yl]urea], the MIC is no more than 2 µg/mL in assay [1] (setting [2]), no more than 1 µg/mL in the assay on S. aureus (ATCC 29213) and no more than 1 µg/mL in the assay on S. pyogenes (ATCC 51339).

As to `CCNC(=O)Nc1nc2cc(-c3cnc(C4(O)CCOCC4)nc3)cc(-c3cc(CN4CCOCC4)ccn3)c2s1` [Compound 125, 1-ethyl-3-[5-[2-(4-hydroxytetrahydropyran-4-yl)pyrimidin-5-yl]-7-[4-(morpholinomethyl)-2-pyridyl]-1,3-benzothiazol-2-yl]urea], the MIC was no more than 2 µg/mL in assay [1] (setting [2]), no more than 1 µg/mL in the assay with S. aureus (ATCC 29213) and no more than 1 µg/mL in the assay on S. pyogenes (ATCC 51339).

Consider `CCNC(=O)Nc1nc2cc(-c3cnc(C4(O)CCSCC4)nc3)cc(-c3ccccn3)c2s1` [Compound 127, 1-ethyl-3-[5-[2-(4-hydroxytetrahydrothiopyran-4-yl)pyrimidin-5-yl]-7-(2-pyridyl)-1,3-benzothiazol-2-yl]urea], for which the MIC was no more than 2 µg/mL in assay [1] (setting [2]), no more than 1 µg/mL in the assay with S. aureus (ATCC 29213) and no more than 1 µg/mL in the assay on S. pyogenes (ATCC 51339).

On to `CCNC(=O)Nc1nc2cc(-c3cnc(C4(O)COC4)nc3)cc(-c3cc(CN4CCOCC4)ccn3)c2s1` [Compound 154, 1-ethyl-3-[5-[2-(3-hydroxyoxetan-3-yl)pyrimidin-5-yl]-7-[4-(morpholinomethyl)-2-pyridyl]-1,3-benzothiazol-2-yl]urea], for which the MIC in assay [1] (setting [2]) was no more than 2 µg/mL; in the assay with S. aureus (ATCC 29213), no more than 1 µg/mL; in the assay on S. pyogenes (ATCC 51339), no more than 1 µg/mL.

Regarding `CCNC(=O)Nc1nc2cc(-c3ccc(C(O)C(F)(F)F)nc3)cc(-c3cc(CN4CC(OC)C4)ccn3)c2s1` (stereo not drawn) [Compound 155, 1-ethyl-3-[7-[4-[(3-methoxyazetidin-1-yl)methyl]-2-pyridyl]-5-[6-[2,2,2-trifluoro-1-hydroxy-ethyl]-3-pyridyl]-1,3-benzothiazol-2-yl]urea], the MIC in assay [1] (setting [2]) is no more than 2 µg/mL; in the assay on S. aureus (ATCC 29213), no more than 1 µg/mL; in the assay with S. pyogenes (ATCC 51339), no more than 1 µg/mL.

In the case of `CCNC(=O)Nc1nc2cc(-c3cnc(C(C)(O)CO)nc3)cc(-c3ccccn3)c2s1` (stereo not drawn) [Compound 157, 1-[5-[2-[1,2-dihydroxy-1-methyl-ethyl]pyrimidin-5-yl]-7-(2-pyridyl)-1,3-benzothiazol-2-yl]-3-ethyl-urea], the MIC in assay [1] (setting [2]) was no more than 2 µg/mL; in the assay on S. aureus (ATCC 29213), no more than 1 µg/mL; in the assay with S. pyogenes (ATCC 51339), no more than 1 µg/mL.

Take `CCNC(=O)Nc1nc2cc(-c3cnc(C(C)O)nc3)cc(-c3ccc(C)cn3)c2s1` (stereo not drawn) [Compound 158, 1-ethyl-3-[5-[2-[1-hydroxyethyl]pyrimidin-5-yl]-7-(5-methyl-2-pyridyl)-1,3-benzothiazol-2-yl]urea]: the MIC is no more than 2 µg/mL in assay [1] (setting [2]), no more than 1 µg/mL in the assay on S. aureus (ATCC 29213) and no more than 1 µg/mL with S. pyogenes (ATCC 51339).

For `CCNC(=O)Nc1nc2cc(-c3cnc(C(C)O)nc3)cc(-c3ccc(C(C)O)cn3)c2s1` (stereo not drawn) [Compound 168, 1-ethyl-3-[7-[5-(1-hydroxyethyl)-2-pyridyl]-5-[2-(1-hydroxyethyl)pyrimidin-5-yl]-1,3-benzothiazol-2-yl]urea], the MIC in assay [1] (setting [2]) is no more than 2 µg/mL; in the assay on S. aureus (ATCC 29213), no more than 1 µg/mL; in the assay on S. pyogenes (ATCC 51339), no more than 1 µg/mL.
